Measured values as given in patent US3940426A, “Process for producing biphenyltetracarboxylic dianhydrides” (UBE Industries, Ltd., priority 1972, dated 1976).

Tests used:
[1] = Solubility of biphenyltetracarboxylic acid isomers in water or an aqueous solvent; format: physicochemical; conditions: order among the biphenyltetracarboxylic acid isomers; FIG. 2 in water at varying temperatures
Method: The solubility was measured by maintaining each of a mixture of 9.35 g of 2,3,3',4'-biphenyltetracarboxylic acid and 10 ml. of water and a mixture of 7.53 g of 3,4,3',4'-biphenyltetracarboxylic acid and 20 ml. of water at a predetermined temperature to dissolve each of the isomers in water, separating the insoluble matter by filtration, drying the filtrate, and weighing it, to thereby obtained the amount of each isomer dissolved at the specified temperature.

[2] = Solubility of biphenyltetracarboxylic dianhydride isomers in aliphatic acid anhydride or ketone; format: physicochemical; conditions: compared with the 3,4,3',4'-isomer; FIG. 1 in acetic anhydride at varying temperatures
Method: Referring to FIG. 1, the ordinate represents the solubility (g/acetic anhydride: 10 ml.) and the abscissa the temperature in °C. The measurement of the solubility was performed by maintaining separate mixtures of 2.5 g of the 2,3,3',4'-isomer and 5 ml. of acetic anhydride and a mixture of 1 g of the 3,4,3',4'-isomer and 20 ml. of acetic anhydride at a predetermined temperature to dissolve each of the isomers in the acetic anhydride, separating the insoluble matter by filtration, drying the filtrate and weighing it, to thereby obtain the amount of the isomer dissolved in […] at the specified temperature.

Compound | solubility in water or in an aqueous solvent [1] | solubility in an aliphatic acid anhydride or ketone [2]
O=C(O)c1cccc(-c2cccc(C(=O)O)c2C(=O)O)c1C(=O)O [2,3,2',3'-isomer, 2,3,2',3'-biphenyltetracarboxylic acid] | largest solubility in water or in an aqueous solvent | –
O=C(O)c1ccc(-c2cccc(C(=O)O)c2C(=O)O)cc1C(=O)O [2,3,3',4'-biphenyltetracarboxylic acid] | followed by the 2,3,3',4'-isomer | –
O=C1OC(=O)c2cc(-c3cccc4c3C(=O)OC4=O)ccc21 [2,3,3',4'-biphenyltetracarboxylic dianhydride] | – | more soluble in an aliphatic acid anhydride or ketone than the 3,4,3',4'-isomer
O=C(O)c1ccc(-c2ccc(C(=O)O)c(C(=O)O)c2)cc1C(=O)O [3,4,3',4'-biphenyltetracarboxylic acid] | the 3,4,3',4'-isomer in order of decreasing solubility | –
